Experimental findings from article PMC4043716 (Drug Design, Development and Therapy, 2014) are described below.

Where two headings read alike, the source gives them in different places.

The test system of data set [1] is NIH3T3 cells. In words: JC-10 mitochondrial membrane potential assay. It counts as cell-based, mouse. The following applies: 1 μM staurosporine alone, 6 hours.
In another data set the test system is caspase-3/7. The data set can be described thus: Apo-ONE Homogeneous Caspase-3/7 Assay in NIH3T3 cells. It counts as cell-based, mouse. The following applies: 1 μM staurosporine alone, 6 hours.
The format of data set [2] is cell-based. The conditions noted are these: rat, PC12 cells.
The subject of data set [3] is NIH3T3 cells. The data set is classed as cell-based, mouse. The conditions noted are these: 1 μM staurosporine alone, 24 hours.
Data set [4] is classed as cell-based. The conditions noted are these: human, U87MG cells.
Data set [5] has as its system NIH3T3 cells. The data set can be described thus: MTT cell proliferation assay. The data set is classed as cell-based, mouse. The following applies: 1 μM staurosporine alone, 24 hours.
Data set [6] is classed as cell-based. The following applies: human, SH-SY5Y cells.

With `CN[C@@H]1C[C@H]2O[C@@](C)([C@@H]1OC)n1c3ccccc3c3c4c(c5c6ccccc6n2c5c31)C(=O)NC4` [staurosporine], in the data set on NIH3T3 cells [1], the Mitochondrial membrane potential entry is given as “significantly lost mitochondrial membrane potential”. Moreover, in the data set on caspase-3/7, the “Caspase activation (caspase-3/7 activity)” value is reported as “induced significant caspase activation”. Also, the viability at 24 h, 1 μM was 4% in data set [2], 8% in data set [4] and 6% in data set [6]. Moreover, the Cell death result in the data set on NIH3T3 cells [3] was “over 90%”. Besides, the “Cell viability by MTT” value with NIH3T3 cells [5] was “reduced the cell viability dramatically”.
